From publication PMC6946862 (Molecular carcinogenesis, 2019)

Target: NAE1 (APP-BP1/UBA3, NEDD8-activating enzyme E1 regulatory subunit) (Homo sapiens, UniProt Q13564)
Test: in vitro NEDD8 initiation conjugation assay
Type: biochemical

Chain of NAE1 (APP-BP1/UBA3, NEDD8-activating enzyme E1 regulatory subunit) (Q13564 2-534): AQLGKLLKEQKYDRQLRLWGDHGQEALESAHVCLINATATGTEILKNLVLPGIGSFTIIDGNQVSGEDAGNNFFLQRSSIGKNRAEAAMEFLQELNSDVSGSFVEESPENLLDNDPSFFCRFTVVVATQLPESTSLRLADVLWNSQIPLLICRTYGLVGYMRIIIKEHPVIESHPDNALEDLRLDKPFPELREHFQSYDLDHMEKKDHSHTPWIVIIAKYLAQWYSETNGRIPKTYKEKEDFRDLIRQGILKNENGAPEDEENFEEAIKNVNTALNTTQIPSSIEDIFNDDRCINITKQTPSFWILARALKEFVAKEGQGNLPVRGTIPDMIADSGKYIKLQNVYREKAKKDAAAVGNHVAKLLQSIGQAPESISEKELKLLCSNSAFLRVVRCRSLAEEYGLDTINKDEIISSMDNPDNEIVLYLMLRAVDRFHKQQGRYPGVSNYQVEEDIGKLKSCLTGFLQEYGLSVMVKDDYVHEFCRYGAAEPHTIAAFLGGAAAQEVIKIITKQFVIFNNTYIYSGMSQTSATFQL
Chain of NAE1 (APP-BP1/UBA3, NEDD8-activating enzyme E1 regulatory subunit) (Q8TBC4 2-463 partner): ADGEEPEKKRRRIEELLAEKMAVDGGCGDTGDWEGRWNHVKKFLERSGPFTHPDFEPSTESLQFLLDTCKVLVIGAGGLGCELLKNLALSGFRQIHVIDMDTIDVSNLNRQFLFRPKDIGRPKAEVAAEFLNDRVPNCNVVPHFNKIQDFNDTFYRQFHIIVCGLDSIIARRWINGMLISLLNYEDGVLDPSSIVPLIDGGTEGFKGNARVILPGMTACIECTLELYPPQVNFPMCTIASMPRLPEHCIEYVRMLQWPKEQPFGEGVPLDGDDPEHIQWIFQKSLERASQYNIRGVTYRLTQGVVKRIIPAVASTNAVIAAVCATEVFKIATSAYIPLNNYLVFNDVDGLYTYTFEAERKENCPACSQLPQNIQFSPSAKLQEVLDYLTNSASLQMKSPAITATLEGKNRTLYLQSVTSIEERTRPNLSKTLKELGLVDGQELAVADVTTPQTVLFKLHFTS
Chain of NAE1 (APP-BP1/UBA3, NEDD8-activating enzyme E1 regulatory subunit) (P61081 whole entry partner): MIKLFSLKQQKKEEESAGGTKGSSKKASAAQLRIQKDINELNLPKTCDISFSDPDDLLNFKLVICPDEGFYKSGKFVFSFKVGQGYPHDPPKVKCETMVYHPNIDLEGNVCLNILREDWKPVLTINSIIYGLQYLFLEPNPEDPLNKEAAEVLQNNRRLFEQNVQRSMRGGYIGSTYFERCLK
Chain of NAE1 (APP-BP1/UBA3, NEDD8-activating enzyme E1 regulatory subunit) (Q15843 1-76 partner): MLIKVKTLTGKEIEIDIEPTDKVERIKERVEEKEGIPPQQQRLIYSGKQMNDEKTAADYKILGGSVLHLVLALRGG

IC50: ~10.3 µM
Compound: CC(C)=CCc1c(O)c(CC=C(C)C)c2oc3c(O)ccc(O)c3c(=O)c2c1O [Gartanin]
